Laboratory results as given in paper PMC9569790, “From Solution Studies of Pharmaceuticals (Aspirin and Related Compounds) to the Thermodynamics of Aspirin-β-Cyclodextrin Interaction in water and N,N-Dimethylformamide” (International Journal of Molecular Sciences, 2022).
Read-outs that look alike come from different tables or passages of the source. Marks after values point to notes of the source that are not given here.

Columns and labels:
[1] = Solubility measurements (gravimetric analysis of saturated solutions) in water; format: physicochemical
Protocol: (§1) The mixtures were left in a thermostatic bath at 298.15 K until equilibrium was reached. Aliquots of the saturated solutions were removed and analyzed gravimetrically by taking a known volume of sample, evaporating the solvent and then weighing the solid in a dry atmosphere. The weighing process was repeated until a constant weight was obtained. The analytical determination was carried out in triplicate on the same equilibrium mixture. Solvate formation was tested by storing the compounds over water or DMF in a desiccator containing an atmosphere saturated with the appropriate solvent over a period of at least four days.

[2] = Conductance measurements in water; format: physicochemical
Protocol: H^+ (aq) + A^− (aq) ⇌ HA (aq)(1)
The ion-pair formation constant for the process described by Equation (1) is expressed in terms of activities, a, as shown in Equation (2): (2) Kip=aHA/aH^+∗aA^−=HA∗γHA/H^+∗[A^−]∗γ±i^2
The conductivity cell constant was determined by the method of Jones and Bradshaw [39] as previously reported [24]. Conductance measurements were performed using the Wayne Kerr Autobalance Universal Bridge, type B642, and the Wayne Kerr Model 7330 Automatic LCR Meter Conductivity Bridge at a frequency of 1 Hz. […] Conductance readings at 298.15 K were recorded after each addition.

[3] = Calorimetric enthalpies of solution in water; format: physicochemical; details: 298.15 K; for ΔsH^0, standard enthalpy of solution: average of the ΔsH values
Text: No measurements could be carried out at higher concentrations since the dissolution rate of this compound in water was relatively slow. […] Since there were no systematic changes in the ΔsH values with changes in the concentration of solute, the standard ΔsH^0 value reported in Table 3 is the average value. In the dissolution of a solute in water or any other solvent, there are two processes involved, as described in Equation (5):ΔsH^0 = ΔclH^0 + ΔsolvH^0(5)
(§2) The reliability of the calorimeter was checked by carrying out the standard reaction based on the protonation of an aqueous solution of tris-(hydroxymethyl)aminomethane (THAM) with an aqueous solution of hydrochloric acid (0.1 mol dm^−3) at 298.15 K (Equation (11)). H2NC(CH2OH)3(aq) + H3O+ (aq) → H3N+C(CH2OH)3(aq) + H2O(aq)(11)
(§3) The system was then placed in a water bath until thermal equilibrium was attained, after which the ampoule was broken into the solvent and the process was monitored by the chart recorder. The observed heat was corrected for the heat of the breaking of the empty ampoule in the solvent. The standard enthalpy of the solution, ∆sH^0, was found from […].

[4] = Calorimetric enthalpies of solution in DMF; format: physicochemical; details: 298.15 K; for ΔsH^0, standard enthalpy of solution: average of the ΔsH values
Text: All observed heats were corrected for the heat from breaking the empty ampoules in DMF (Q = −0.0518 J). Since there were no systematic changes in the ΔsH values with changes in the concentration of the solute, the reported standard ΔsH^0 values are the average values of the data reported in Table 5. This table also includes the standard deviations of the data.
as §2, §3

[5] = Gibbs free energy and entropies of solution in water, corrected for ion-pair formation; format: physicochemical; details: 298.15 K; for pKsp: corrected for ion-pair formation; for ΔsG^0, standard Gibbs energy of solution: standard state 1 mol dm^−3
Text: In Equation (2), concentrations are in mol dm^−3, and γ ± i^2 is the mean molar ionic coefficient calculated by the use of the Debye–Hückel equation, where γHA is the activity coefficient of the un-ionized species. In very dilute solutions, γHA may be considered equal to unity. As far as the standard Gibbs energy of the solution in the standard state of 1 mol dm^−3, ∆sG^0, is concerned, the application of Equation (3) requires knowledge of the ion-pair formation constant in solution. The availability of Kip and solubilities in water allows the calculation the ionic molar concentration, ci, and the molar concentration of ion pairs, cip, as previously shown. The data refer to the standard state (1 mol dm^−3). ΔsG^0= −RTln (ci^2 * γ±i^2)(3)
In Equation (6), aH^+ and aA^− represent the activities of the species H^+ and A^− in solution respectively. The activity of the solid is unity by convention. The activity, a, on the molar scale (mol dm^−3) is related to the ionic molar concentration, ci, by the mean molar ionic activity coefficient, γ ± i.
Thus:K^0sp = ci^2 ∗ γ ± i^2 (7)
The availability of Gibbs energy (Equation (3)) and enthalpy values allows the calculation of the entropy of solution, ΔsS. For this purpose, the following equation was used.

[6] = Transfer thermodynamic parameters from water to DMF; format: physicochemical; details: 298.15 K
Text: As mentioned earlier, ΔsH^0 is made by the contribution of the crystal lattice enthalpy and the solvation enthalpy. In order to remove the contribution of the crystal lattice process, it is a common practice to calculate the transfer thermodynamic parameters according to the following process: […]

[7] = Solvate formation test in a solvent-saturated atmosphere; format: physicochemical; details: water
Protocol: as §1

[8] = Conductance measurements in DMF; format: physicochemical; details: 298.15 K
Protocol: Conductance measurements were performed using the Wayne Kerr Autobalance Universal Bridge, type B642, and the Wayne Kerr Model 7330 Automatic LCR Meter Conductivity Bridge at a frequency of 1 Hz. […] Conductance readings at 298.15 K were recorded after each addition.

[9] = Interaction of acetylsalicylic acid with β-cyclodextrin in DMF (titration calorimetry); format: binding; details: nonionized guest, 298 K
Protocol: For deriving the thermodynamic parameters of the interaction of cyclodextrin and these pharmaceuticals in these solvents, the four-channel microcalorimeter was used.
The latter was added from a 2 cm^3 burette connected by a silicone tube to the reaction vessel after thermal equilibrium was reached. These experiments were carried out in duplicate. For each solvent, blank experiments were performed to account for the dilution effects resulting from the addition of the appropriate anion salt to the solvent placed in the calorimetric vessel.

[10] = water, cited from earlier work
[11] = water; cited from earlier work
[12] = design: method as in PMID 16509753; details: water, 298 K, cited from earlier work

## CC(=O)c1ccc(O)c(C(=O)O)c1 [5-acetylsalicylic acid]
[1]
  Solubility, S: (3.46 ± 0.22) ∗ 10^−3 mol dm^−3
[2]
  pKa: 3.04
[2]; water, 298.15 K
  Ka, dissociation constant: 9.09 × 10^−4
  Kip, ion-pair formation constant: 11 × 10^2
  Λ^0m, molar conductance at infinite dilution: 389 S cm^2 mol^−1
[3]
  ΔsH^0, standard enthalpy of solution: 6.74 kcal/mol
[3]; listed as 5-Acetylsalicylic Acid
  ΔsH^0, standard enthalpy of solution: ΔsH^0 = 28.2 ± 0.3 kJ mol^−1
[3]; c = 2.58 × 10^−4 mol dm^−3
  ΔsH, enthalpy of solution: 6.862 kcal/mol
[3]; c = 2.66 × 10^−4 mol dm^−3
  ΔsH, enthalpy of solution: 6.795 kcal/mol
[3]; c = 4.49 × 10^−4 mol dm^−3
  ΔsH, enthalpy of solution: 6.74 kcal/mol
[3]; c = 6.67 × 10^−4 mol dm^−3
  ΔsH, enthalpy of solution: 6.663 kcal/mol
[3]; c = 7.05 × 10^−4 mol dm^−3
  ΔsH, enthalpy of solution: 6.807 kcal/mol
[3]; c = 8.05 × 10^−4 mol dm^−3
  ΔsH, enthalpy of solution: 6.673 kcal/mol
[4]
  ΔsH^0, standard enthalpy of solution: 1.63 ± 0.048 kcal/mol
[4]; c = 1.11 × 10^−3 mol dm^−3
  ΔsH, enthalpy of solution: 1.58 kcal/mol
[4]; c = 1.45 × 10^−3 mol dm^−3
  ΔsH, enthalpy of solution: 1.59 kcal/mol
[4]; c = 1.76 × 10^−3 mol dm^−3
  ΔsH, enthalpy of solution: 1.57 kcal/mol
[4]; c = 2.07 × 10^−3 mol dm^−3
  ΔsH, enthalpy of solution: 1.59 kcal/mol
[4]; c = 2.18 × 10^−3 mol dm^−3
  ΔsH, enthalpy of solution: 1.69 kcal/mol
[4]; c = 2.38 × 10^−3 mol dm^−3
  ΔsH, enthalpy of solution: 1.66 kcal/mol
[5]
  ΔsS^0, entropy of solution: −15 J K^−1 mol^−1
  pKsp: 5.74
  ΔsG^0, standard Gibbs energy of solution: 7.82 kcal/mol
[6]
  ΔtH^0, enthalpy of transfer: -5.11 kcal/mol
[7]
  Solvate formation: not detected

## CC(=O)Oc1ccccc1C(=O)O [acetylsalicylate]
[2]; water, 298.15 K, from Λ^0m and λH^+ = 349.8
  Ionic conductivity at infinite dilution of the anion, λA^−: 42.2 S cm^2 mol^−1

## CC(=O)Oc1ccccc1C(=O)O [acetylsalicylic acid, reference compound]
[1]
  Solubility, S: (2.20 ± 0.28) ∗ 10^−2 mol dm^−3
[2]; water, 298.15 K
  Ka, dissociation constant: 1.75 × 10^−4
  Kip, ion-pair formation constant: 57 × 10^2
  Λ^0m, molar conductance at infinite dilution: 392 S cm^2 mol^−1
[2]; water, estimated from data of Pierre and Jencks [25]
  Fraction hydrolyzed at the end of the conductance measurements: 5%
[8]
  Speciation in solution from conductance: undissociated
[3]; listed as Acetylsalicylic Acid
  ΔsH^0, standard enthalpy of solution: ΔsH^0 = 11.1 ± 0.6 kJ mol^−1
[3]; listed as Acetylsalicylic acid
  ΔsH^0, standard enthalpy of solution: 2.65 kcal/mol
[3]; c = 2.40 × 10^−4 mol dm^−3
  ΔsH, enthalpy of solution: 2.823 kcal/mol
[3]; c = 3.51 × 10^−4 mol dm^−3
  ΔsH, enthalpy of solution: 2.5 kcal/mol
[3]; c = 4.66 × 10^−4 mol dm^−3
  ΔsH, enthalpy of solution: 2.44 kcal/mol
[3]; c = 5.13 × 10^−4 mol dm^−3
  ΔsH, enthalpy of solution: 2.646 kcal/mol
[3]; c = 5.26 × 10^−4 mol dm^−3
  ΔsH, enthalpy of solution: 2.686 kcal/mol
[3]; c = 5.99 × 10^−4 mol dm^−3
  ΔsH, enthalpy of solution: 2.799 kcal/mol
[4]
  ΔsH^0, standard enthalpy of solution: 1.86 ± 0.048 kcal/mol
[4]; c = 1.10 × 10^−3 mol dm^−3
  ΔsH, enthalpy of solution: 1.79 kcal/mol
[4]; c = 1.48 × 10^−3 mol dm^−3
  ΔsH, enthalpy of solution: 1.8 kcal/mol
[4]; c = 5.74 × 10^−4 mol dm^−3
  ΔsH, enthalpy of solution: 1.96 kcal/mol
[4]; c = 6.42 × 10^−4 mol dm^−3
  ΔsH, enthalpy of solution: 1.87 kcal/mol
[4]; c = 8.62 × 10^−4 mol dm^−3
  ΔsH, enthalpy of solution: 1.84 kcal/mol
[4]; c = 9.10 × 10^−4 mol dm^−3
  ΔsH, enthalpy of solution: 1.87 kcal/mol
[5]
  ΔsS^0, entropy of solution: −67 J K^−1 mol^−1
  pKsp: 5.45
  ΔsG^0, standard Gibbs energy of solution: 7.43 kcal/mol
[6]
  ΔtH^0, enthalpy of transfer: -0.789 kcal/mol
[9]
  log Kass: 4.66 ± 0.03 ^b
[7]
  Solvate formation: not detected
[10]; 299.65 K
  Solubility (literature, molar scale): 2.31 × 10^−2 mol dm^−3
[10]
  Solubility (literature): 1.78 × 10^−2 mol/dm^−3
[11]
  Apparent enthalpy of solution (literature, van ’t Hoff equation): 5.47 kcal/mol
[12]; pH 1.75, nonionized guest, calculated from Kass of ref 15
  log Kass: 2.74 ^a
[12]; pH 6.00, ionized guest, calculated from Ks of ref 15
  log Ks: 1.71 ^a
